From patent US20260226048A1, “MULTI-CYCLIC IRAK AND FLT3 INHIBITING COMPOUNDS AND USES THEREOF” (CHILDREN'S HOSPITAL MEDICAL CENTER, priority 2023, published 2026)
pIC50: −log10 of the molar value.

Columns and labels:
IRAK1 = biological target: T1, IRAK1 (Homo sapiens, UniProt P51617); assay: RBC HotSpot Kinase Assay, IRAK1; format: biochemical; conditions: isolated kinase enzyme, 33P-ATP, P81 filter-binding
T1 construct: purchased Reaction Biology (RBC HotSpot)
Procedure, shortened: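 Reactions ran in 20 mM Hepes (pH 7.5) containing 10 mM MgCl2, 1 mM EGTA, 0.1 mM Na3VO4, 2 mM DTT, 0.02 mg/ml BSA, 0.01% Brij35 and 1% DMSO, plus required cofactors. Functional activity readout on the expressible enzyme form, sometimes C-terminally truncated or lacking receptor regulatory regions.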

THP1 cells (FLT3 WT) = assay: Combination drug screening with venetoclax in THP1 cells (Cell Titre Glo, 10 × 10); format: cell-based; conditions: for Excess HSA (sum excess HSA score, combination with venetoclax): 10 × 10 dataset, Cell Titre Glo at 48 hours, optimal of 4 dose combinations, negative = synergy; for Concentration needed to decrease the 312.5 nM Venetoclax response to <20%: Cell Titer Glo at 48 hours
Experimental: (§1) These assays were performed using the Cell Titre Glo assay, measured at 48 hours.
(§2) A smaller concentration indicates higher potency to synergize with Venetoclax.

IRAK4 = biological target: T2, IRAK4 (Homo sapiens, UniProt Q9NWZ3); assay: RBC HotSpot Kinase Assay, IRAK4; format: biochemical; set-up: purchased Reaction Biology (RBC HotSpot); conditions: isolated kinase enzyme, 33P-ATP, P81 filter-binding
T2 sequence (Q9NWZ3 1-460): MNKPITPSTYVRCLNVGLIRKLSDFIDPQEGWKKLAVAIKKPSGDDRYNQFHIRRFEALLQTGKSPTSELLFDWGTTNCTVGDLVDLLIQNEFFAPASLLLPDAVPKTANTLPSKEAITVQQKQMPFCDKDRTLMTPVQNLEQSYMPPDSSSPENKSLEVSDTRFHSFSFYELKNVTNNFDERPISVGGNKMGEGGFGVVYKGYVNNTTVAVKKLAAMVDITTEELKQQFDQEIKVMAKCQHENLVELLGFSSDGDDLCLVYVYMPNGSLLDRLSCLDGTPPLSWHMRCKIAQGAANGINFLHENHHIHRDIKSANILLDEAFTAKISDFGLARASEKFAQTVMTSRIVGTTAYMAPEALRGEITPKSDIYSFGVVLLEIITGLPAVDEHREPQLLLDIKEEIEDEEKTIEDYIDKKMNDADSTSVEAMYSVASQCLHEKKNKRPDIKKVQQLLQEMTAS
Procedure, shortened: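 Radiometric filter-binding activity assay with isolated recombinant kinase (construct may be truncated or catalytic domain only) in 20 mM Hepes pH 7.5, 10 mM MgCl2, 1 mM EGTA, 2 mM DTT, 1% DMSO. Compound preincubated 20 min with kinase/substrate; reaction started with 33P-ATP, run 2 h at room temperature.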

[1] = tested on: MOLM14-D835Y cells (FLT3-ITD (D835Y) mutant); assay: Combination drug screening with venetoclax in MOLM14 (D835Y) cells (Cell Titre Glo, 10 × 10); format: cell-based; set-up: Excess HSA (sum excess HSA score, combination with venetoclax): scale not given here; conditions: for Excess HSA (sum excess HSA score, combination with venetoclax): 10 × 10 dataset, Cell Titre Glo at 48 hours, optimal of 4 dose combinations, negative = synergy; for Concentration of a compound of the disclosure, or gilteritinib, needed to decrease the 62.5 nM Ven response to <10% in MOLM14(D835Y) cells: combination with 62.5 nM Venetoclax, Cell Titer Glo, 48 hours, response <10%
Experimental: as §1, §2

MOLM14 F691L cells = assay: MOLM14 F691L cell viability assay (Cell Titer Glo); format: cell-based; conditions: Homo sapiens, MOLM-14; cell viability, Cell Titer Glo, 48 hours; read-out: MOLM14 F691L IC50
Procedure, shortened: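 Luminescent ATP read-out (CellTiter-Glo, 15 min room temperature) taken 48 h after compound addition. Cells were MOLM14 carrying FLT3 D835Y or F691L mutations, plated at 1000 cells per well.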

T1 sequence (P51617 whole entry): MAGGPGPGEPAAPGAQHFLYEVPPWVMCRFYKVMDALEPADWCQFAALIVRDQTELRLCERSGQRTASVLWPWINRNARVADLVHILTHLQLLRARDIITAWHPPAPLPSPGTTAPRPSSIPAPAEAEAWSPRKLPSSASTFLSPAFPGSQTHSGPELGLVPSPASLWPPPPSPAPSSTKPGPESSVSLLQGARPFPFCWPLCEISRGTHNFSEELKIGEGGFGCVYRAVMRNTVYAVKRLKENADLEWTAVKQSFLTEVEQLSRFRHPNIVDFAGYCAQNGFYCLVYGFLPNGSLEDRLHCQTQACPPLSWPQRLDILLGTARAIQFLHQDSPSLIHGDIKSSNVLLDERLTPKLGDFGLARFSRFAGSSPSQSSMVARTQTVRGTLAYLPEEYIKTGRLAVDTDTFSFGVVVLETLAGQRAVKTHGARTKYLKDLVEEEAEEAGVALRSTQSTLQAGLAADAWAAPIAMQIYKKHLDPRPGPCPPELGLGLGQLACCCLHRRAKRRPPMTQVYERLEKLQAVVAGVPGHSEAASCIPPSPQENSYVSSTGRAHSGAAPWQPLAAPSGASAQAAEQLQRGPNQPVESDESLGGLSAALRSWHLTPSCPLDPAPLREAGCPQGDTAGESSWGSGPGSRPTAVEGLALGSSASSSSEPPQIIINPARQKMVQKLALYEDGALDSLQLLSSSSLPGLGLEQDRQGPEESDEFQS

Compound | pIC50 (IRAK1) | Excess HSA (sum excess HSA score, combination with venetoclax) (THP1 cells (FLT3 WT)) | Concentration needed to decrease the 312.5 nM Venetoclax response to <20% (THP1 cells (FLT3 WT)) | pIC50 (IRAK4) | Excess HSA (sum excess HSA score, combination with venetoclax) [1] | Concentration of a compound of the disclosure, or gilteritinib, needed to decrease the 62.5 nM Ven response to <10% in MOLM14(D835Y) cells [1] | pIC50 (MOLM14 F691L cells)
CC(O)(c1ccc2ncc(-c3ccnc(N[C@H]4CNCC[C@@H]4F)n3)n2c1)C(F)(F)F (single isomer, unassigned) [Compound 25a] | 7.77 | −1386 | 1.25 µM | 8.70 | −1507 | 25 nM | 
CC(O)(c1ccc2ncc(-c3ccnc(N[C@@H]4CCCNC4)n3)n2c1)C(F)(F)F (single isomer, unassigned) [Compound 22a] | 7.72 |  |  | 8.52 |  |  | 
CC(O)(c1ccc2ncc(-c3ccnc(N[C@@H]4CCCNC4)n3)n2c1)C(F)(F)F (single isomer, unassigned) [Compound 23a] | 8.52 |  |  | 9.10 |  |  | 
COc1cc2ncc(-c3nc(N[C@H]4CNCC[C@@H]4F)ncc3F)n2nc1C1COC1 [Compound 92a, 5-fluoro-N-((3S,4S)-4-fluoropiperidin-3-yl)-4-(7-methoxy-6-(oxetan-3-yl)imidazo[1,2-b]pyridazin-3-yl)pyrimidin-2-amine] | 8.40 | −529.2 | 5 µM | > 9.30 |  | 12.5 nM | 7.40
CC(C)(O)c1cn2c(-c3nc(N[C@H]4CNCC[C@@H]4F)ncc3F)cnc2cn1 [Compound 100a, 2-(3-(5-fluoro-2-(((3S,4S)-4-fluoropiperidin-3-yl)amino)pyrimidin-4-yl)imidazo[1,2-a]pyrazin-6-yl)propan-2-ol] | 7.62 | −1080 | 10 µM | 8.70 | −1548 | 625 nM | 6.22
COc1cc2ncc(-c3nc(N[C@H]4CNCC[C@@H]4F)ncc3F)n2nc1C1CC(F)(F)C1 [Compound 49a, 4-(6-(3,3-difluorocyclobutyl)-7-methoxyimidazo[1,2-b]pyridazin-3-yl)-5-fluoro-N-((3S,4S)-4-fluoropiperidin-3-yl)pyrimidin-2-amine] | 8.70 | −1767 | 10 µM | 9.30 | −1960 | 6.3 nM | 
CC(C)(O)c1ccc2ncc(-c3nc(N[C@H]4CNCC[C@@H]4F)ncc3F)n2c1 [Compound 46a, 2-(3-(5-fluoro-2-(((3S,4S)-4-fluoropiperidin-3-yl)amino)pyrimidin-4-yl)imidazo[1,2-a]pyridin-6-yl)propan-2-ol] | 8.22 | −774 | 2.5 µM | 8.70 | −1279 | 50 nM | 6.60
COc1cc2ncc(-c3nc(N[C@H]4CNC[C@@H]4F)ncc3F)n2nc1N1CCCS1(=O)=O [Compound 111a, 2-(3-(5-fluoro-2-(((3S,4S)-4-fluoropyrrolidin-3-yl)amino)pyrimidin-4-yl)-7-methoxyimidazo[1,2-b]pyridazin-6-yl)isothiazolidine 1,1-dioxide] | 7.40 |  |  | 8.52 |  |  | 6.95
CC(O)(c1ccc2ncc(-c3cncc(N[C@H]4CNCC[C@@H]4F)n3)n2c1)C(F)(F)F (single isomer, unassigned) [Compound 31a] | 7.77 |  |  | 8.70 |  |  | 
COc1cc2ncc(-c3nc(N[C@H]4CNCC[C@@H]4F)ncc3F)n2nc1C1CC1 [Compound 1a, 4-(6-cyclopropyl-7-methoxyimidazo[1,2-b]pyridazin-3-yl)-5-fluoro-N-((3S,4S)-4-fluoropiperidin-3-yl)pyrimidin-2-amine] | 9.00 | −696.6 | 2.5 µM | 9.05 | −1505 | 1.6 nM | 8.22
FC(F)COc1cc2ncc(-c3ccnc(N[C@H]4CNCC[C@@H]4F)n3)n2nc1C1CC1 [Compound 4a, 4-(6-cyclopropyl-7-(2,2-difluoroethoxy)imidazo[1,2-b]pyridazin-3-yl)-N-((3 S,4S)-4-fluoropiperidin-3-yl)pyrimidin-2-amine] | 7.51 | −2433 | 2.5 µM | 9.00 | −1769 | 6.3 nM | 7.44
CC(C)(O)c1ccc2ncc(-c3nc(N[C@@H]4CCCNC4)ncc3F)n2c1 [Compound 48a, (R)-2-(3-(5-fluoro-2-(piperidin-3-ylamino)pyrimidin-4-yl)imidazo[1,2-a]pyridin-6-yl)propan-2-ol] | 8.00 | −759.8 | 2.5 µM | 8.30 | −1694 | 156.3 nM | 
COc1cc2ncc(-c3nc(N[C@H]4CNCC[C@@H]4F)ncc3F)n2nc1C(C)(C)O [Compound 45a, 2-(3-(5-fluoro-2-(((3S,4S)-4-fluoropiperidin-3-yl)amino)pyrimidin-4-yl)-7-methoxyimidazo[1,2-b]pyridazin-6-yl)propan-2-ol] | 7.74 | −1158 | 10 µM | 8.10 | −2340 | 25 nM | 7.05
COc1cc2ncc(-c3nc(N[C@H]4CNCC[C@@H]4F)ncc3F)n2nc1C1CC2(CCC2)C1 [Compound 60a, 5-fluoro-N-((3S,4S)-4-fluoropiperidin-3-yl)-4-(7-methoxy-6-(spiro[3.3]heptan-2-yl)imidazo[1,2-b]pyridazin-3-yl)pyrimidin-2-amine] | 8.40 | −1548 | 5 µM | 8.10 | −1497.3117 | 25 nM | 7.05
COc1cc2ncc(-c3nc(N[C@H]4CNCC[C@@H]4F)ncc3F)n2nc1N1CCCS1(=O)=O [Compound 112a, 2-(3-(5-fluoro-2-(((3S,4S)-4-fluoropiperidin-3-yl)amino)pyrimidin-4-yl)-7-methoxyimidazo[1,2-b]pyridazin-6-yl)isothiazolidine 1,1-dioxide] | 7.72 |  |  | 8.52 |  |  | 7.64
CC(O)(c1ccc2ncc(-c3cncc(N[C@@H]4CCCNC4)n3)n2c1)C(F)(F)F (single isomer, unassigned) [Compound 28a] | 7.48 |  |  | 8.52 |  |  | 
